Assay results from patent US20110245284A1, “Alkoxy- and Alkylthio-Substituted Anilinopyrimidines” (Bayer CropScience AG, priority 2008, published 2011).

Experiment: logP by HPLC on reversed-phase columns (C 18), method [a], acidic range pH 2.3
Format: physicochemical
Conditions: pH 2.94, logP (pH2.94)

Row | Compound | chromatographic logP
1 | CC(O)c1cccc(Nc2ncc(Cl)c(NC3CC3)n2)c1 (centres unmarked) [Ic-IV-1, 1-(3-{[5-Chloro-4-(cyclopropylamino)pyrimidin-2-yl]amino}phenyl)ethanol] | 1.25
2 | CCC[S+]([O-])c1cccc(Nc2ncc(C(F)(F)F)c(Cl)n2)c1 (centres unmarked) [Xb-1, 4-Chloro-N-[3-(propylsulphinyl)phenyl]-5-(trifluoromethyl)pyrimidin-2-amine] | 1.76
